One assay has as its target T1, Adenosine A2B Receptor (Homo sapiens, UniProt P29275).
T1 sequence (P29275 1-332): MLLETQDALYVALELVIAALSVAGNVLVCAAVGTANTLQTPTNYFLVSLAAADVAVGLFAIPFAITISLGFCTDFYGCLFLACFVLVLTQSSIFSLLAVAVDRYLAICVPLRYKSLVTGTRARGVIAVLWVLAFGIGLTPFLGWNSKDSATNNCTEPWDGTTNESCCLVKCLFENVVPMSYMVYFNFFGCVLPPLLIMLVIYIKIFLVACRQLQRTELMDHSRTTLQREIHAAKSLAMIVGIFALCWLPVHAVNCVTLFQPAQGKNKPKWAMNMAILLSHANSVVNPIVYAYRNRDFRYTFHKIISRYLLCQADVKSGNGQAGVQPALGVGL
Nature of the assay: Activity assay of adenosine receptor modulators, Adenosine A2B Receptor (Table 1). It counts as biochemical. The settings on record: cAMP; read-out: A2BR cAMP IC50. Here is the method:
(§1) Compounds (e.g., adenosine receptor modulators) were tested for its biological activity. The assay results in Table 1 indicate (+ means >1 μM; ++ means 100 nM to 1 μM; +++ means <100 nM).

In a further assay the target is T2, A3R (Homo sapiens, UniProt P0DMS8).
T2 sequence (P0DMS8 1-318): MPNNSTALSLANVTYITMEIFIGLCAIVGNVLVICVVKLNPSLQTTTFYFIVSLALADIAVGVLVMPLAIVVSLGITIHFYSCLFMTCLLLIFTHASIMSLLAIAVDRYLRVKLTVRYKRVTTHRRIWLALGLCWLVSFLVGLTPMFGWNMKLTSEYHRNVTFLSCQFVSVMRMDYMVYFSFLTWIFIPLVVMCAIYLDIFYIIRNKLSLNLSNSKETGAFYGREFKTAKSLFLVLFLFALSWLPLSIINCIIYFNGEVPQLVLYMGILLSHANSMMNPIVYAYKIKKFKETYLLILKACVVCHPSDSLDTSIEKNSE
Nature of the assay: Activity assay of adenosine receptor modulators, A3R cAMP (Table 1). It counts as cell-based. Here is the method: as §1

The next assay concerns the target T3, A1R (Homo sapiens, UniProt P30542).
T3 sequence (P30542 1-326): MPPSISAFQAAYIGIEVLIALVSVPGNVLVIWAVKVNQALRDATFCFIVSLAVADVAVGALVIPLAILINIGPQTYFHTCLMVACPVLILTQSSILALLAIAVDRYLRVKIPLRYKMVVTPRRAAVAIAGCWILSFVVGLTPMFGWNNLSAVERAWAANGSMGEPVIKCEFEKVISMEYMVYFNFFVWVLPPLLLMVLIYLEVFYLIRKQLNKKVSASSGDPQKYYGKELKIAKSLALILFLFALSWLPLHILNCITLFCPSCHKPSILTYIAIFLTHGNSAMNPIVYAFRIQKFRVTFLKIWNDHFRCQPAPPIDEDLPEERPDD
Briefly: Activity assay of adenosine receptor modulators, A1R cAMP (Table 1). It counts as cell-based. The method, then: as §1

The next assay addresses Adenosine A2A Receptor (Homo sapiens, UniProt P29274). Nature of the assay: Activity assay of adenosine receptor modulators, Adenosine A2A Receptor (Table 1). It counts as biochemical. The conditions noted are these: cAMP; read-out: A2AR cAMP IC50. Here is the method: as §1

Each structure is given as a SMILES string. Where only a bound is given, the exact number is not on record here.

Chain of Adenosine A2A Receptor (P29274 whole entry): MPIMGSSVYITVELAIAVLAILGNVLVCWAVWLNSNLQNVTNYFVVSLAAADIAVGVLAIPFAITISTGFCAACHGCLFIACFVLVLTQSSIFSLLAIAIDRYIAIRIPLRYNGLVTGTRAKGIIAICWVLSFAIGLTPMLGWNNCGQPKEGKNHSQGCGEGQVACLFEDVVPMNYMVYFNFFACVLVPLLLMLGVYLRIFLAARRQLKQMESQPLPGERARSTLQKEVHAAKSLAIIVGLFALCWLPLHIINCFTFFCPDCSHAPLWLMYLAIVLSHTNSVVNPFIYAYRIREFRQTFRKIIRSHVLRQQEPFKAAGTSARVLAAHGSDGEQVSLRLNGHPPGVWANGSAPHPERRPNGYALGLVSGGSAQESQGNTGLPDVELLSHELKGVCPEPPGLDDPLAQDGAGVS

By IC50 is commonly meant the midpoint of a concentration-inhibition curve. With `Cc1nc2nc(N[C@@H](C)c3cncc(F)c3)nc(C(=O)N3CCCC3)c2s1` [Example 1, (S)-(5-((1-(5-Fluoropyridin-3-yl)ethyl)amino)-2-methylthiazolo[4,5-d]pyrimidin-7-yl)(pyrrolidin-1-yl)methanone], the IC50 on Adenosine A2B Receptor is less than 0.1 µM; on A3R, 0.1 to 1 µM; against A1R, more than 1 µM; on Adenosine A2A Receptor it was 0.1 to 1 µM.

Take `Cc1nc2nc(N[C@@H](C)c3cncc(F)c3)nc(C(=O)N3CCC3)c2s1` [Example 2, (S)-Azetidin-1-yl(5-((1-(5-fluoropyridin-3-yl)ethyl)amino)-2-methylthiazolo[4,5-d]pyrimidin-7-yl)methanone]: the IC50 at Adenosine A2B Receptor was less than 0.1 µM; against A3R, 0.1 to 1 µM; against A1R it was more than 1 µM; at Adenosine A2A Receptor it was 0.1 to 1 µM.

Consider `Cc1nc2nc(N[C@@H](C)c3cncc(F)c3)nc(C(=O)NC[C@@H](C)O)c2s1` [Example 3, 5-(((S)-1-(5-Fluoropyridin-3-yl)ethyl)amino)-N—((R)-2-hydroxypropyl)-2-methylthiazolo[4,5-d]pyrimidine-7-carboxamide], for which the IC50 at Adenosine A2B Receptor was less than 0.1 µM; on A3R, 0.1 to 1 µM; against A1R, 0.1 to 1 µM; on Adenosine A2A Receptor, 0.1 to 1 µM.

Regarding `Cc1nc2nc(N[C@@H](C)c3cncc(F)c3)nc(C(=O)N3CC[C@H](O)C3)c2s1` [Example 4, (5-(((S)-1-(5-Fluoropyridin-3-yl)ethyl)amino)-2-methylthiazolo[4,5-d]pyrimidin-7-yl)((S)-3-hydroxypyrrolidin-1-yl)methanone], the IC50 at Adenosine A2B Receptor was less than 0.1 µM; against A3R it was more than 1 µM; on A1R, more than 1 µM; at Adenosine A2A Receptor it was more than 1 µM.

In the case of `Cc1nc2nc(N[C@@H](C)c3cncc(F)c3)nc(C(=O)NC[C@H](C)O)c2s1` [Example 5, 5-(((S)-1-(5-Fluoropyridin-3-yl)ethyl)amino)-N—((S)-2-hydroxypropyl)-2-methylthiazolo[4,5-d]pyrimidine-7-carboxamide], the 50% inhibitory concentration (IC50) at Adenosine A2B Receptor is less than 0.1 µM; at A3R it was 0.1 to 1 µM; on A1R it was 0.1 to 1 µM; on Adenosine A2A Receptor it was more than 1 µM.

For `Cc1nc2nc(N[C@@H](C)c3cccnc3)nc(C(=O)N3CCCC3)c2s1` [Example 6, (S)-(2-Methyl-5-((1-(pyridin-3-yl)ethyl)amino)thiazolo[4,5-d]pyrimidin-7-yl)(pyrrolidin-1-yl)methanone], the 50% inhibitory concentration (IC50) on Adenosine A2B Receptor was less than 0.1 µM; against A3R, 0.1 to 1 µM; on A1R, more than 1 µM; on Adenosine A2A Receptor, 0.1 to 1 µM.

For `Cc1nc2nc(N[C@@H](C)c3ccccn3)nc(C(=O)NC(C)C)c2s1` [Example 10, (S)—N-Isopropyl-2-methyl-5-((1-(pyridin-2-yl)ethyl)amino)thiazolo[4,5-d]pyrimidine-7-carboxamide], the IC50 is less than 0.1 µM at Adenosine A2B Receptor and 0.1 to 1 µM on Adenosine A2A Receptor.

Regarding `Cc1nc2nc(N[C@@H](C)c3ccccn3)nc(C(=O)N3CC[C@@H](O)C3)c2s1` [Example 19, ((R)-3-Hydroxypyrrolidin-1-yl)(2-methyl-5-(((S)-1-(pyridin-2-yl)ethyl)amino)thiazolo[4,5-d]pyrimidin-7-yl)methanone], the half-maximal inhibitory concentration (IC50) at Adenosine A2B Receptor is less than 0.1 µM; on Adenosine A2A Receptor, more than 1 µM.

For the compound `C[C@H](Nc1nc(C(=O)N2CCCC2)c2sc(N)nc2n1)c1cccnc1` [Example 20, (S)-(2-Amino-5-((1-(pyridin-3-yl)ethyl)amino)thiazolo[4,5-d]pyrimidin-7-yl)(pyrrolidin-1-yl)methanone], the concentration for half-maximal inhibition (IC50) is 0.1 to 1 µM at Adenosine A2B Receptor and more than 1 µM on Adenosine A2A Receptor.

As to `Cc1nc2nc(N[C@@H](C)c3cncc(F)c3)nc(C(=O)NCCC3CCN(C(=O)OC(C)(C)C)CC3)c2s1` [Example 22, tert-Butyl (S)-4-(2-(5-((1-(5-fluoropyridin-3-yl)ethyl)amino)-2-methylthiazolo[4,5-d]pyrimidine-7-carboxamido)ethyl)piperidine-1-carboxylate], the IC50 was 0.1 to 1 µM on Adenosine A2B Receptor and more than 1 µM on Adenosine A2A Receptor.

As to `Cc1nc2nc(N[C@@H](C)c3cncc(F)c3)nc(C(=O)NCc3cccnc3)c2s1` [Example 23, (S)-5-((1-(5-Fluoropyridin-3-yl)ethyl)amino)-2-methyl-N-(pyridin-3-ylmethyl)thiazolo[4,5-d]pyrimidine-7-carboxamide], the IC50 on Adenosine A2B Receptor was less than 0.1 µM; on Adenosine A2A Receptor, 0.1 to 1 µM.

For `Cc1nc2nc(N[C@@H](C)c3cncc(F)c3)nc(C(=O)N3CC(C(=O)N(C)C)C3)c2s1` [Example 26, (S)-1-(5-((1-(5-Fluoropyridin-3-yl)ethyl)amino)-2-methylthiazolo[4,5-d]pyrimidine-7-carbonyl)-N,N-dimethylazetidine-3-carboxamide], the half-inhibitory concentration (IC50) on Adenosine A2B Receptor was less than 0.1 µM; on Adenosine A2A Receptor it was more than 1 µM.

Take `Cc1nc2nc(N[C@@H](C)c3cccnc3)nc(C(=O)N[C@@H](C)c3cccnc3)c2s1` [Example 27, 2-Methyl-N—((S)-1-(pyridin-3-yl)ethyl)-5-(((S)-1-(pyridin-3-yl)ethyl)amino)thiazolo[4,5-d]pyrimidine-7-carboxamide]: the 50% inhibitory concentration (IC50) on Adenosine A2B Receptor and on Adenosine A2A Receptor was 0.1 to 1 µM in each case.

As for `Cc1nc2nc(N[C@@H](C)c3cncc(F)c3)nc(C(=O)N3CCN(C(=O)CC(C)(C)C)C3)c2s1` [Example 34, (S)-1-(3-(5-((1-(5-Fluoropyridin-3-yl)ethyl)amino)-2-methylthiazolo[4,5-d]pyrimidine-7-carbonyl)imidazolidin-1-yl)-3,3-dimethylbutan-1-one], the IC50 at Adenosine A2B Receptor was 0.1 to 1 µM; at Adenosine A2A Receptor, more than 1 µM.

`Cc1nc2nc(N[C@@H](C)c3cncc(F)c3)nc(C(=O)N3CCN(C(=O)NC(C)(C)C)C3)c2s1` [Example 35, (S)—N-(tert-Butyl)-3-(5-((1-(5-fluoropyridin-3-yl)ethyl)amino)-2-methylthiazolo[4,5-d]pyrimidine-7-carbonyl)imidazolidine-1-carboxamide]: the 50% inhibitory concentration (IC50) on Adenosine A2B Receptor and at Adenosine A2A Receptor was 0.1 to 1 µM throughout.

Turning to `Cc1nc2nc(N[C@@H](C)c3cncc(F)c3)nc(C(=O)NCCNC(=O)NC(C)(C)C)c2s1` [Example 36, (S)—N-(2-(3-(tert-butyl)ureido)ethyl)-5-((1-(5-fluoropyridin-3-yl)ethyl)amino)-2-methylthiazolo[4,5-d]pyrimidine-7-carboxamide], the IC50 was more than 1 µM at Adenosine A2B Receptor and 0.1 to 1 µM at Adenosine A2A Receptor.

With `Cc1nc2nc(N[C@@H](C)c3cncc(F)c3)nc(C(=O)N3CC[C@@H](N)C3)c2s1` [Example 42, ((R)-3-Aminopyrrolidin-1-yl)(5-(((S)-1-(5-fluoropyridin-3-yl)ethyl)amino)-2-methylthiazolo[4,5-d]pyrimidin-7-yl)methanone], the IC50 is 0.1 to 1 µM on Adenosine A2B Receptor and more than 1 µM on Adenosine A2A Receptor.

Consider `Cc1nc2nc(N[C@@H](C)c3cncc(F)c3)nc(C(=O)N3CC[C@H](N)C3)c2s1` [Example 43, ((S)-3-Aminopyrrolidin-1-yl)(5-(((S)-1-(5-fluoropyridin-3-yl)ethyl)amino)-2-methylthiazolo[4,5-d]pyrimidin-7-yl)methanone], for which the IC50 on Adenosine A2B Receptor is 0.1 to 1 µM; at Adenosine A2A Receptor, more than 1 µM.

Take `CC(=O)N(C)C1CN(C(=O)c2nc(N[C@@H](C)c3cncc(F)c3)nc3nc(C)sc23)C1` [Example 44, (S)—N-(1-(5-((1-(5-Fluoropyridin-3-yl)ethyl)amino)-2-methylthiazolo[4,5-d]pyrimidine-7-carbonyl)azetidin-3-yl)-N-methylacetamide]: the 50% inhibitory concentration (IC50) at Adenosine A2B Receptor is 0.1 to 1 µM; at Adenosine A2A Receptor, more than 1 µM.

With `Cc1nc2nc(N[C@@H](C)c3cncc(F)c3)nc(C(=O)N3CC(NC(=O)C4CCOC4)C3)c2s1` (stereo partly drawn) [Example 45, N-(1-(5-(((S)-1-(5-Fluoropyridin-3-yl)ethyl)amino)-2-methylthiazolo[4,5-d]pyrimidine-7-carbonyl)azetidin-3-yl)tetrahydrofuran-3-carboxamide], the IC50 on Adenosine A2B Receptor and on Adenosine A2A Receptor was 0.1 to 1 µM throughout.

Turning to `Cc1nc2nc(N[C@@H](C)c3cncc(F)c3)nc(C(=O)NCCN3CCOCC3)c2s1` [Example 46, (S)-5-((1-(5-Fluoropyridin-3-yl)ethyl)amino)-2-methyl-N-(2-morpholinoethyl)thiazolo[4,5-d]pyrimidine-7-carboxamide], the IC50 was 0.1 to 1 µM at Adenosine A2B Receptor and more than 1 µM at Adenosine A2A Receptor.
